Experimental data from ChEMBL document CHEMBL3507680, “University of Dundee, Gates Library screen for HepG2 cell viability”.

Experiment: Human HepG2 cell viability assay in 384 well format
Assay type: toxicity, cell-based
Design: dose 125 nL, time 70.5 hour; concentration not given beside the values
Conditions: HepG2 cells, read-out: Inhibition

| SMILES | cytotoxicity at 70.5 h [%] |
| --- | --- |
| CC(NC(=O)N(C)Cc1ccncc1)c1cn(-c2ccccc2)nn1 (stereo not drawn) | 4.1 |
| CCCc1nc(Cn2c(=O)n(C)c3ccccc32)no1 | -6.48 |
| CCOc1cccc(CNC(C)c2ccc(-n3ccnc3)cc2)c1O (stereo not drawn) | 2.29 |
| CCC(SC)C(=O)N1CCC(n2ccnn2)CC1 (stereo not drawn) | -7.09 |
| O=C(C(C1CC1)C1CC1)N1CCC(n2ccnn2)CC1 | -9.3 |
| Fc1ccc(C2CN(c3ncnc4[nH]ncc34)CCO2)cc1 (stereo not drawn) | 12.2 |
| c1ccc(-n2nnnc2NCc2ccc3c(c2)OCO3)cc1 | 4.41 |
| CC(Nc1cnn(C)c(=O)c1Cl)c1ccc(F)c(F)c1 (stereo not drawn) | 39.8 |
| NC(=O)CNC1(c2ccc(Cl)cc2)CCCC1 | 0.922 |
| Cc1cc(S(C)(=O)=O)c(C)c(S(=O)(=O)N2CCCCCC2)c1 | -7.91 |
| Cc1cc(S(C)(=O)=O)c(C)c(S(=O)(=O)N2CCN(C)CC2)c1 | 32.6 |
| CC(C)(C)CC(=O)NCC(=O)Nc1ccn(Cc2ccncc2)n1 | -20.8 |
| NC(=O)NC(=O)CNC1(c2ccc(Cl)cc2)CCC1 | 2.08 |
| Cn1nc(Br)c2c(NCCSCCCO)ncnc21 | -10.5 |
| CC(NC(=O)N1CCNC(=O)CC1)c1ccc(C(F)(F)F)cc1 (stereo not drawn) | -19.2 |
| CCOCCN1CCCC1CS(N)(=O)=O (stereo not drawn) | -10.1 |
| CC(NC(=O)N1CCNC(=O)CC1)c1ccc(OC(F)F)cc1 (stereo not drawn) | -8.12 |
| Cc1ccc(-n2nc(C)cc2N)nn1 | -14.8 |
| CCC(NC(=O)NCc1cccc(N(C)C)n1)c1cccs1 (stereo not drawn) | -11.8 |
| CSCC(CCO)NC(=O)c1cccc(C)c1Cl (stereo not drawn) | -13.9 |
| CC(Nc1cnn(C)c(=O)c1Cl)c1ccc(F)cc1 (stereo not drawn) | -13.1 |
| CN(CC(=O)NCc1ccco1)Cc1nc2c(s1)CCCC2 | 4 |
| COCCn1ccc(NC(=O)CNC(=O)CC(C)(C)C)n1 | 27.5 |
| COCCN1CCN(CC(=O)N(C)Cc2ccc(F)cc2)CC1C (stereo not drawn) | 23.3 |

| SMILES | cytotoxicity at 70.5 h [%] |
| --- | --- |
| CN(CCCc1cc(-c2cccc(F)c2)n[nH]1)C(=O)CCn1cncn1 | -13.6 |
| O=C(c1cnns1)N1CCN(Cc2ccc(F)cc2Cl)CC1 | -4.81 |
| COc1cccc(N2CCC(CNC(=O)NCc3ccco3)C2)c1 (stereo not drawn) | -0.834 |
| COc1cccc(N2CCC(CNC(=O)N(C)Cc3ccco3)C2)c1 (stereo not drawn) | -3.66 |
| COCCN1CCN(CC(=O)N(C)Cc2ccc(C)o2)CC1C (stereo not drawn) | -12.6 |
| CS(=O)(=O)CCNCc1ccc(OCc2ccncc2)cc1 | 19.2 |
| Cn1nc2c(cc1=O)CN(Cc1ccc(-n3cccn3)cc1)CC2 | -6.38 |
| CN1CCC(NC(=O)Nc2ccc(Cl)c(F)c2)C1=O (stereo not drawn) | 2.58 |
| CC(C)CN1C(=O)C2(CCCC2)NC12CCSCC2 | 0.871 |
| O=C1CN(C(=O)C2CCOCC2)CCN1Cc1ccc(Cl)cc1 | 0.576 |
| CN(C)c1nccc(CNS(=O)(=O)c2cc(Cl)cc(Cl)c2)n1 | -1.35 |
| OCC(O)CSCc1cc(Cl)ccc1Cl (stereo not drawn) | -3.91 |
| OCC(O)CSCc1ccc(F)cc1Cl (stereo not drawn) | 19.6 |
| CCN(Cc1cccc(NC(=O)COCCOC)c1)C(C)=O | 1.86 |
| COc1ccccc1N1CCC(CNC(=O)N(C)Cc2ccco2)C1 (stereo not drawn) | -3.56 |
| CN(CCCc1cc(-c2ccc(F)cc2)n[nH]1)C(=O)CCn1cncn1 | 1.64 |
| CN(CCCc1cc(-c2ccccc2)n[nH]1)C(=O)CCCn1cncn1 | -6.04 |
| COc1cc(F)c(S(=O)(=O)NCc2ccnc(N(C)C)n2)cc1OC | -8.38 |
| Cc1cccc(CNCC2COC3(CCCC3)O2)c1C (stereo not drawn) | 3.58 |
| O=C(NCc1cccnc1N1CCCCC1)c1ccc2cc[nH]c2c1 | -15.2 |
| O=C(NCc1ccc(Br)c(F)c1)Nc1cn[nH]c1 | -22.7 |
| Cc1noc(C)c1CN1CCCC1c1nnc2ccccn12 (stereo not drawn) | -23.7 |
| Cc1ccc(CNC(=O)NCc2ccco2)s1 | -24.6 |
| CCS(=O)(=O)N1CCN(C(C)c2ncc(-c3ccccc3)o2)CC1 (stereo not drawn) | -19.2 |

| SMILES | cytotoxicity at 70.5 h [%] |
| --- | --- |
| CC(O)CN1CCN(C(=O)CCOc2ccccc2F)CC1 (stereo not drawn) | -17.1 |
| CCn1c(C2CCCN2Cc2noc(C(C)(C)C)n2)nc2ccccc21 (stereo not drawn) | -26.2 |
| Cc1ncsc1C(=O)OCCN1CCCCCC1=O | -8.25 |
| Cc1nc(COc2ccc(S(=O)(=O)N(C)C)cc2)sc1C | -24.1 |
| Cc1nnc(-c2cccc(C#N)c2)n1C1CCN(C(C)C)C1=O (stereo not drawn) | -11.3 |
| CN(Cc1ccncc1)c1cncc(Br)c1 | -14.6 |
| CN(Cc1ccc([S+](C)[O-])cc1)c1cncc(Br)c1 (stereo not drawn) | -23.7 |
| Cc1cc(C(=O)NCC(=O)N2CCOCC2)nn1C(C)(C)C | -17.2 |
| Cn1ncnc1NCc1ccc(Br)cc1 | -5.73 |
| CC(CNC(=O)c1cnc[nH]1)Oc1ccccc1Br (stereo not drawn) | -15.7 |
| CCCN(CCc1ccccn1)C(=O)Cn1cc(C)cn1 | -4.61 |
| COc1ccc(C(C)N2CCC(CO)CC2)cc1Cl (stereo not drawn) | -2.59 |
| COc1ccc(C(C)N2CCC(OC)CC2)cc1Cl (stereo not drawn) | -5.66 |
| CC(c1ccc(F)c(F)c1)N(C)CCS(=O)(=O)CCC(N)=O (stereo not drawn) | -9.48 |
| OCc1ccc(N2CCN(c3ncccn3)CC2)c(F)c1 | -5.65 |
| NCc1ccc(N2CCN(c3ncccn3)CC2)c(F)c1 | 6.72 |
| CCOCCCC(=O)Nc1cc(C(N)=O)ccc1N1CCCCC1 | -9.3 |
| O=C(c1ccc2c(c1)[nH]c(=O)n2C1CCCC1)N1CCSCC1 | -4.63 |
| O=C(CNc1cccc(S(=O)(=O)C(F)F)c1)NCc1ccco1 | 11.3 |
| O=C(Nc1ccncc1)NC1CCN(c2ccccc2Cl)C1=O (stereo not drawn) | -5.27 |
| CN(CCNS(C)(=O)=O)C(=O)c1ccc(Cl)c(Cl)c1 | -6.01 |
| COc1cccc(C(=O)N2CCN(CC(O)c3ccccc3)CC2)c1 (stereo not drawn) | -9.4 |
| CC(C)(C)[S+]([O-])CCNC(=O)c1cccc2ncccc12 (stereo not drawn) | -8.58 |
| O=C(CNc1cccc(CC(F)(F)F)c1)NCc1ccco1 | -4.32 |

| SMILES | cytotoxicity at 70.5 h [%] |
| --- | --- |
| CN(C)CCCN(CCC#N)C(=O)Nc1ccc2[nH]ccc2c1 | -4.34 |
| COCCC(=O)Nc1nccn1Cc1ccc(Br)cc1 | -0.141 |
| CSCC(=O)Nc1nccn1Cc1ccc(Br)cc1 | -3.91 |
| O=C(c1ccc2c(c1)[nH]c(=O)n2C1CCCC1)N1CC(O)C1 | -3.54 |
| CN1CCN(C(=O)c2ccc3c(c2)[nH]c(=O)n3C2CCCC2)CC1 | 9.54 |
| Cc1ccc(C(=O)N(C)CCNS(C)(=O)=O)cc1Br | -5.18 |
| COc1cccc(CC2CCCN2CCCC#N)c1 (stereo not drawn) | -1.21 |
| CN(CC1CCN(CCO)CC1)CC(O)c1ccc(F)cc1 (stereo not drawn) | -5.05 |
| Cn1cc(CCCN2CCN(Cc3cccc(O)c3)CC2)cn1 | -3.39 |
| CN(CC1CCN(CCO)CC1)CC(O)c1ccc(F)cc1F (stereo not drawn) | -3.94 |
| CC(c1cccc(Cl)c1)N(C)CCS(=O)(=O)CCC(N)=O (stereo not drawn) | -0.172 |
| Cc1nc(C)n(Cc2cccc(NC(=O)NC(C)(CO)C3CC3)c2)n1 (stereo not drawn) | -6.87 |
| CS(=O)(=O)c1cccc(C(=O)NCC2(c3ccccc3)CC2)c1 | -11.2 |
| N#Cc1ccc(N2CCCN(CC(N)=O)CC2)cc1 | -9.42 |
| COCCN1CCC(CNC(=O)C2(S(C)(=O)=O)CCCC2)CC1 | -3.79 |
| Cn1c(=O)ccn(CC(=O)N2CCCC(n3cccn3)C2)c1=O (stereo not drawn) | -9.63 |
| Cc1cc(C)n(C2CCCN(C(=O)Cn3ccc(=O)n(C)c3=O)C2)n1 (stereo not drawn) | -7.57 |
| COCC(C)NS(=O)(=O)c1ccc(Br)cn1 (stereo not drawn) | -11.1 |
| Cc1ccccc1-c1cc(NC(=O)Cn2ccccc2=O)n(C)n1 | -0.508 |
| CCC(CCO)NS(=O)(=O)c1ccc(Br)cn1 (stereo not drawn) | -0.693 |
| Cc1csc(C2(NCc3nc(-c4ccco4)oc3C)CCCC2)n1 | 22.8 |
| C[C@H](CCO)NS(=O)(=O)c1ccc(Br)cn1 | -6.95 |
| Cn1cc(N2CCC(Nc3ccc4nccnc4n3)C2=O)cn1 (stereo not drawn) | -10.5 |
| O=C(c1ncoc1-c1ccco1)N1CCCN(c2nccs2)CC1 | -2.69 |

| SMILES | cytotoxicity at 70.5 h [%] |
| --- | --- |
| CCCC1(CNCc2ncc[nH]2)CCC1 | -8.95 |
| Cc1ccc(-c2nc(CN(Cc3cccs3)C3CCS(=O)(=O)C3)cs2)o1 (stereo not drawn) | 13.7 |
| CC(NCCCc1cnn(C)c1)c1ccc(Br)s1 (stereo not drawn) | -1.02 |
| CCN1C[C@H]2N(c3ncccn3)CCC[C@@]2(C(=O)NCC2CC2)C1 | 0.391 |
| CO[C@H]1CO[C@@]2(CCCN(C(=O)C3CC=CC3)C2)C1 | -0.276 |
| Cc1nccc(NCc2cncc3c2CCN(CCN(C)C)C3)n1 | 3.96 |
| CO[C@@H]1CO[C@@]2(CCCN(C(=O)N3CCCC3)C2)C1 | 0.448 |
| O=C(c1ccccc1)N1CCO[C@@H]2CN(Cc3ccc[nH]3)C[C@@H]2C1 | 1.61 |
| CC(C)n1c2ccccc2c2c1cc(C(=O)NC1CC1)n2C(=O)N(C)C | 1.81 |
| CC(=O)N1CCc2nc(-c3ccc(F)cc3)nc(NC(C)C)c2CC1 | 7.5 |
| COCC(=O)N1CCc2nc(C)nc(NC(C)C)c2CC1 | -6.06 |
| Cc1nc2c(c(NC(C)C)n1)CCN(C(=O)CCO)CC2 | -14.4 |
| CNC(=O)NCC1CCC2(CCN(C(=O)c3ccccn3)CC2)CO1 (stereo not drawn) | 1.5 |
| O=C(c1ccc[nH]1)N1CCCn2c(CNC3CCC3)nnc2C1 | -4.17 |
| CC(C)N1CCO[C@@H]2CN(C(=O)NCc3ccccc3)CC[C@@H]2C1 | 28.5 |
| O=C(c1ccco1)N1CCC2(CCCN(c3ncccn3)C2)C1 (stereo not drawn) | 11 |
| Cc1occc1C(=O)N1CCC2(CCCN(c3ncc(F)cn3)C2)C1 (stereo not drawn) | -1.51 |
| Cc1ccc(C(=O)N2CCC3(CCCN(c4ncc(F)cn4)C3)C2)cn1 (stereo not drawn) | -5.14 |
| NCC1CCC2(CCN(C(=O)c3ccccn3)CC2)CO1 (stereo not drawn) | 2.02 |
| CNC(=O)CN1CCC2(CCCN(CC3CCOC3)C2)CC1 (stereo not drawn) | -6.27 |
| COCCN1C[C@@H]2CN(Cc3ccc(C)s3)CCC[C@]2(C(=O)O)C1 | 11.4 |
| O=C(NCc1ccccn1)[C@@]12CCO[C@@H]1CCN(Cc1ccccn1)C2 | -5.8 |
